Where “and” joins values, the source holds several entries; their conditions need not be identical. Equal values may be shown once. Read-outs that look alike come from different tables or passages of the source. One block for each molecule: values may come before it.
Experiments:
AKR1C3 [1] = biological target: T1, AKR1C3 (Homo sapiens, UniProt P42330)
T1 sequence (P42330 1-323): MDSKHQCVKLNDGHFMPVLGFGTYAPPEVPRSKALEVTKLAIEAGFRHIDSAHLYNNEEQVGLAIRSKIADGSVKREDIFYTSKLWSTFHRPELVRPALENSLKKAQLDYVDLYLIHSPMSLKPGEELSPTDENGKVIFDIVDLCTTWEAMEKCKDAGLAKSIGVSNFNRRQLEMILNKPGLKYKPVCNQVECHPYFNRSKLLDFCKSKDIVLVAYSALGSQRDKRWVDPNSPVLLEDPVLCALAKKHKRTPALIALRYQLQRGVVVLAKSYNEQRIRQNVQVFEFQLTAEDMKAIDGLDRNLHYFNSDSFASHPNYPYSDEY

ER-beta = biological target: T2, ER-beta (Homo sapiens, UniProt Q92731); experiment: ER-beta transactivation (ERE-LUC luciferase) in HEK-293 cells; assay type: cell-based;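 note: HEK-293 cells transiently transfected with an ER-β expression plasmid and ERE-LUC reporter, firefly luciferase read-out normalized to co-transfected Renilla luciferase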
T2 construct: expressed in transfected cells; host or cells: HEK-293

ER-α = biological target: T3, ER-α (Homo sapiens, UniProt P03372); experiment: ER-α ligand binding domain competitive binding with [3H]Estradiol
T3 sequence (P03372 311-547 limits assumed): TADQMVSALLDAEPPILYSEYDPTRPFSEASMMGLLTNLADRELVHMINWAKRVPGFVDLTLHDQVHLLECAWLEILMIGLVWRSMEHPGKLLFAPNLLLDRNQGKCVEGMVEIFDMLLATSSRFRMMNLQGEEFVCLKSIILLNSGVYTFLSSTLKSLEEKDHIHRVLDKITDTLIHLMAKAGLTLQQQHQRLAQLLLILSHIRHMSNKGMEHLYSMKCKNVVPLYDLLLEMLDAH

ER-alpha = biological target: T4, ER-alpha (Homo sapiens, UniProt P03372); experiment: ER-alpha transactivation (ERE-LUC luciferase) in HEK-293 cells; assay type: cell-based;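 note: HEK-293 cells co-transfected with an ER-alpha expression plasmid, an ERE-driven firefly luciferase reporter and a CMV Renilla control, with the firefly signal normalized to Renilla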
T4 construct: expressed in transfected cells; host or cells: HEK-293
T4 sequence (P03372 1-595): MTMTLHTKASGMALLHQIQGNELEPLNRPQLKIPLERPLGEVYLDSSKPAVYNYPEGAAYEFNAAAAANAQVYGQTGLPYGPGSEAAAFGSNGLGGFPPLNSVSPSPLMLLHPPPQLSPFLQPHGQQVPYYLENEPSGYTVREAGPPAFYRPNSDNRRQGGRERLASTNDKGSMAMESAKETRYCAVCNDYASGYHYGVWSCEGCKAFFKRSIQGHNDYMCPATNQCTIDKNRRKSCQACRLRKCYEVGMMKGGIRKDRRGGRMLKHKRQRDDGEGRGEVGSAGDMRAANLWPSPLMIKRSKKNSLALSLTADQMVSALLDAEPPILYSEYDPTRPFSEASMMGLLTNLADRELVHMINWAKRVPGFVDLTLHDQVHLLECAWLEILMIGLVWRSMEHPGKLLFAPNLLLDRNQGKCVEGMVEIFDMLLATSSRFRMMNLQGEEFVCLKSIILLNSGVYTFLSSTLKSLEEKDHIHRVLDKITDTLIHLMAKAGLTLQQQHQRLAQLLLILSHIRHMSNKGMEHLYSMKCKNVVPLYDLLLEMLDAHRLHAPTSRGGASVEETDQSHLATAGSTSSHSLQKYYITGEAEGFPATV

AKR1C3 [2] = biological target: T1, AKR1C3; experiment: cell-based
[3] = Liver microsome incubation (HLM Phase I and Phase I + II), LC-MS/MS; assay type: in vitro ADME, human; details: for microsomal CLint: human, human liver microsomes
Protocol: Stock solutions of prespective AKR1C3 inhibitors were prepared in DMSO at 5 mM and were incubated with liver microsomes (0.1 mg/mL). Incubations were conducted at 37° C. in a shaking water bath for 10 minutes (microsomes). Incubation durations were selected based on time course study (microsomes) or published literature (recombinant enzymes). Prepared samples were analyzed using LC-MS/MS.

ER-β = ER-β (Homo sapiens, UniProt Q92731); experiment: ER-β ligand binding domain competitive binding with [3H]Estradiol
AKR1C3 [4] = biological target: T1, AKR1C3; experiment: Purified AKR1C3 enzyme assay, [14C]-A'dione to testosterone, TLC based; assay type: biochemical; set-up: GST (N); made in house; host or cells: bacterial culture, IPTG induced (E. coli BL21-DE3 is named only for the crystallography preparation)
Protocol: Perkin Elmer; […] American Radiolabeled Chemicals, St. Louis, Mo.). The reaction was stopped by the addition of 400 μl ethyl acetate, vortexed, and spun for […] at 2000 rpm. The upper layer was transferred to a new tube and air dried. The pellet was resuspended in 25 μl of methanol, spotted on TLC plates and fractionated in TLC chamber with 3:1 chloroform:ethyl acetate. Once the mobile phase reached the top, the plates were dried and exposed to a phosphoimager screen overnight. […] Perkin Elmer) was incubated at 37° C. for 60 min. The reaction was stopped by the addition of 400 μl ethyl acetate, vortexed, and spun for […] at 2000 rpm. The upper layer was transferred to a new tube and air dried. The pellet was resuspended in 25 μl of methanol, spotted on TLC plates and fractionated in TLC chamber with 3:1 chloroform:ethyl acetate. Once the mobile phase reached the top, the plates were dried and exposed to a phosphoimager screen overnight.

AKR1C3 [5] = biological target: T1, AKR1C3; details: 100 nM androstenedione, 24 hrs, LC-MS/MS (FIG. 2)

T2 sequence (Q92731 whole entry, species assumed): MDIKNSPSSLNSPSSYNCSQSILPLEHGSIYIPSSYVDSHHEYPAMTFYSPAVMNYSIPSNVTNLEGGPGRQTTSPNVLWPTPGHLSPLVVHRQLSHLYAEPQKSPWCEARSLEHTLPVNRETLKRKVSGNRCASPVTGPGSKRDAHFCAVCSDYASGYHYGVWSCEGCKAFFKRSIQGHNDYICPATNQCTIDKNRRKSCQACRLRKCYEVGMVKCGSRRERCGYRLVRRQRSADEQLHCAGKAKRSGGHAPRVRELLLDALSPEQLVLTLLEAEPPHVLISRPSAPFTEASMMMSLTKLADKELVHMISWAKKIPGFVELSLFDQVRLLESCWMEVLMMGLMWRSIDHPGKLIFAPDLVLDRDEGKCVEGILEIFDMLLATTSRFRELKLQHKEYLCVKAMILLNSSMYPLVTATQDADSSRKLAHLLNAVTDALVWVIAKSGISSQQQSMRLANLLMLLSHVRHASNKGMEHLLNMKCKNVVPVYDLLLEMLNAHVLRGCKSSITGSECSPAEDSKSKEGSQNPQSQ
ER-β, sequence (Q92731 264-498 limits assumed, species assumed): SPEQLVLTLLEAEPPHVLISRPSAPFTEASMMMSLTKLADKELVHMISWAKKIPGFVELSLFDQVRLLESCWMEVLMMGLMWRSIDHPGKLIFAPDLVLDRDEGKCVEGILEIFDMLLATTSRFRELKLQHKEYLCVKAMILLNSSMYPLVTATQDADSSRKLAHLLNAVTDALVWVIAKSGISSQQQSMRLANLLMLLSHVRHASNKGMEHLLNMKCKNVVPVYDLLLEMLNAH

SMILES: COc1ccc(C=CC(=O)O)cc1OC [3,4,dimethoxy cinnamic acid]
- IC50 (AKR1C3 [1]): > 10000 nM

- EC50 (ER-beta; agonist mode, drug alone, read-out: Agonist ER-β): > 10000 nM
- IC50 (ER-beta; antagonist mode, in combination with estradiol, read-out: Antagonist ER-β): 677 nM
- Ki (ER-α): > 1510 nM
- EC50 (ER-alpha; agonist mode, drug alone, read-out: Agonist ER-α): > 10000 nM
- IC50 (ER-alpha; antagonist mode, in combination with estradiol, read-out: Antagonist ER-α): > 10000 nM
- IC50 (AKR1C3 [2]): 451 nM
- HLM Phase I CLint ([3]; HLM Phase I): 0.8 µL/min/mg
- HLM Phase I + II CLint ([3]; HLM Phase I + II): 19.1 µL/min/mg
- HLM Phase I + II T-1/2 ([3]; HLM Phase I + II): 40 min and 36.12 min
- microsomal CLint ([3]; HLM Phase I + II, read-out: HLM Phase I + II CLint): 17 µL/min/mg
- microsomal CLint ([3]; HLM Phase I, read-out: HLM Phase I CLint): < 1 µL/min/mg
- Ki (ER-β): 157 nM
- inhibition at 10 µM (AKR1C3 [4]; 10 μM inhibitor, purified AKR1C3 TLC based enzyme assay, read-out: AKR1C3 inhibition at 10 μM): 52%
- inhibition at 10 µM (AKR1C3 [4]; read-out: % inhibition from control HSD-5 (10 uM)): 52%
SMILES: O=c1c2ccc(O)cc2c(-c2ccc(C(F)(F)F)cc2)cn1-c1ccc(O)cc1 [Compound 13, 6-hydroxy-2-(4-hydroxyphenyl)-4-(4-(trifluoromethyl)phenyl)isoquinolin-1(2H)-one]

- Inhibition of AKR1C3 dependent conversion of androstenedione to testosterone (AKR1C3 [5]): potently inhibited
SMILES: NC(=O)c1ccc(-n2cc(-c3ccc(C(F)(F)F)c(F)c3)c3cc(O)ccc3c2=O)cc1 [Compound 215, 4-(4-(3-fluoro-4-(trifluoromethyl)phenyl)-6-hydroxy-1-oxoisoquinolin-2(1H)-yl)benzamide]

— patent US20130116277A1, “ALDO-KETO REDUCTASE SUBFAMILY 1C3 (AKR1C3) INHIBITORS” (priority 2007, published 2013)
